We go through 14 compounds from patent US6410533B1, “Antibacterial compounds” (Genzyme Corporation, priority 2000, dated 2002).

Each structure is given as a SMILES string. pIC50: −log10 of the molar value. Values after ≈ are worked out from the molar mass of the structure shown. Like-named read-outs stand apart in the source and are kept apart here.

The test system of assay [1] is Staphylococcus aureus bacteria (ATCC 9604 SV). Briefly: Minimal inhibitory concentration (MIC), broth microdilution. The settings on record: 24 h at 37° C. The assay is classed as cell-based. In outline: (§1)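 MIC: broth microdilution per NCCLS in Mueller-Hinton broth; overnight culture adjusted to 0.05 McFarland and diluted twenty-fold into compound-containing broth. IC50: inoculum at 0.1 McFarland diluted two-fold into TB broth with compound, 3–5 h at 37° C. Turbidity at 550 nm; IC50 is the concentration giving 50% growth inhibition.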
For orientation: Broth dilution looks for growth in wells or tubes with falling amounts of substance.

Assay [2] shares this test system. Briefly: IC50 determination, growth inhibition by turbidity at 550 nm. The settings on record: Staphylococcus aureus ATCC 9604 SV, turbidity at 550 nm after 3-5 h at 37° C. The assay is classed as cell-based. In outline: as §1
Assay [3] relates to methicillin-resistant Staphylococcus aureus (ATCC 33591). Briefly: In vivo mouse intraperitoneal infection, mortality and % survivors over 7 days. The settings on record: MRSA ATCC 33591 i.p., ICR mice; for In Vivo, single dose (% of mice rescued): single dose 1 h post inoculation; for In Vivo, double dose (% of mice rescued): 1 and 5 h post inoculation. In outline: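 Male ICR mice (20 g, 10 per group) were infected i.p. with 2-3×10^7 CFU/mouse (LD90-100) of MRSA ATCC 33591 in broth with 5% mucin. Compound in 1% cremophore EL/saline was given s.c. at 1 h, or at 1 and 5 h, post-infection. Mortality and % survivors were recorded over 7 days.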

The mark [4] stands for this setting: Staphylococcus aureus ATCC 9604 SV.
Setting [5] is: ATCC9604, Staphylococcus aureus ATCC 9604 SV, read-out: MIC.

In general, MIC refers to the least concentration at which growth counts as inhibited. A word on the pIC50: it is the IC50 on a negative log10 scale, so that one unit is a factor of ten. Regarding `O=C(Nc1cc(Cl)cc(Cl)c1)Nc1cc(-c2cccs2)nn1-c1ccc(Br)cc1` [Compound 108], the MIC in assay [1] (setting [4]) is >25.4 µg/mL. For the same compound, the pIC50 in assay [2] is 6.71. The figures for the “In Vivo, single dose (% of mice rescued)” value in assay [3] (2 mg/kg s.c.) and in assay [3] (20 mg/kg s.c.) were 0% @ 2 mg/kg and 0% @ 20 mg/kg, respectively.
The matching figures for `O=C(Nc1cc(C(F)(F)F)cc(C(F)(F)F)c1)Nc1cc(-c2cccs2)nn1-c1ccc(Br)cc1` [Compound 109]: <0.863 µg/mL, 6.81, 25% @ 2 mg/kg and 25% @ 20 mg/kg.
For `O=C(Nc1cc(Cl)cc(Cl)c1)Nc1cc(-c2ccsc2)nn1-c1ccc(Br)cc1` [Compound 110], the MIC in assay [1] (setting [4]) turned out to be 25.4 µg/mL (≈ 50 µM). In assay [2], this compound showed a pIC50 of 6.79. The “In Vivo, single dose (% of mice rescued)” value in assay [3] (2 mg/kg s.c.) is listed as 0% @ 2 mg/kg; in assay [3] (20 mg/kg s.c.), 0% @ 20 mg/kg.
The matching figures for `O=C(Nc1cc(C(F)(F)F)cc(C(F)(F)F)c1)Nc1cc(-c2ccsc2)nn1-c1ccc(Br)cc1` [Compound 111]: <0.863 µg/mL, 6.90, 0% @ 2 mg/kg and 0% @ 20 mg/kg.
Taken in the same sequence, the figures for `O=C(Nc1cc(Cl)cc(Cl)c1)Nc1cc(-c2ccco2)nn1-c1ccc(Br)cc1` [Compound 112] were 6.15 µg/mL (≈ 12.5 µM), 6.63, 0% @ 2 mg/kg and 0% @ 20 mg/kg.
The matching figures for `O=C(Nc1cc(C(F)(F)F)cc(C(F)(F)F)c1)Nc1cc(-c2ccco2)nn1-c1ccc(Br)cc1` [Compound 113]: <0.839 µg/mL, 6.82, 25% @ 2 mg/kg and 0% @ 20 mg/kg.
Take `O=C(Nc1cc(Cl)cc(Cl)c1)Nc1cc(-c2cccnc2)nn1-c1ccc(Br)cc1` [Compound 116]: the MIC in assay [1] (setting [4]) is 3.02 µg/mL (≈ 6 µM). In assay [2], this compound had a pIC50 of 6.41. The entries for the “In Vivo, single dose (% of mice rescued)” value in assay [3] (2 mg/kg s.c.) and in assay [3] (20 mg/kg s.c.) were 0% @ 2 mg/kg and 0% @ 20 mg/kg, respectively.
As to `O=C(Nc1cc(C(F)(F)F)cc(C(F)(F)F)c1)Nc1cc(-c2cccnc2)nn1-c1ccc(Br)cc1` [Compound 117, 1-(3,5-Bis-trifluoromethyl-phenyl)-3-[2-(4-bromo-phenyl)-5-pyridin-3-yl-2H-pyrazol-3-yl]-urea], in assay [1] (setting [5]), the MIC was 3.42 µg/mL (≈ 6 µM). The pIC50 in assay [2] (ATCC9604) was 6.62. Moreover, the “In Vivo, single dose (% of mice rescued)” value in assay [3] (2 mg/kg s.c.) was 25% @ 2 mg/kg; in assay [3] (20 mg/kg s.c.), 0% @ 20 mg/kg.
As to `O=C(Nc1cc(Cl)cc(Cl)c1)Nc1cc(-c2ccccc2)nn1CC(F)(F)F` [Compound 120], the minimal inhibitory concentration (MIC) in assay [1] (setting [4]) was >21.5 µg/mL. Also, the pIC50 in assay [2] is 6.54. The “In Vivo, single dose (% of mice rescued)” value is on record as 0% @ 2 mg/kg in assay [3] (2 mg/kg s.c.) and 0% @ 20 mg/kg in assay [3] (20 mg/kg s.c.).
Taken in the same sequence, the figures for `O=C(Nc1cc(C(F)(F)F)cc(C(F)(F)F)c1)Nc1cc(-c2ccccc2)nn1CC(F)(F)F` [Compound 121] were <1.49 µg/mL, 7.08, 0% @ 2 mg/kg and 0% @ 20 mg/kg.
Taken in the same sequence, the figures for `O=C(Nc1cc(C(F)(F)F)cc(C(F)(F)F)c1)Nc1nc(-c2ccc(F)c(F)c2)cs1` [Compound 151] were 1.40 µg/mL (≈ 3 µM), 6.88, 0% @ 2 mg/kg and 0% @ 20 mg/kg.
The matching figures for `Cc1cc(-c2csc(NC(=O)Nc3cc(C(F)(F)F)cc(C(F)(F)F)c3)n2)ccc1F` [Compound 152]: 1.39 µg/mL (≈ 3 µM), 6.77, 0% @ 2 mg/kg and 0% @ 20 mg/kg.
Turning to `O=C(Nc1ccc(F)c(C(F)(F)F)c1)Nc1nc(-c2ccc(F)c(F)c2)cs1` [Compound 168], the MIC in assay [1] (setting [4]) was <0.626 µg/mL. In assay [2], this compound had a pIC50 of 6.74. Also, the results for the “In Vivo, single dose (% of mice rescued)” value in assay [3] (2 mg/kg s.c.) and in assay [3] (20 mg/kg s.c.) were 0% @ 2 mg/kg and 0% @ 20 mg/kg, respectively.
As to `O=C(NCc1cccc(Cl)c1)Nc1nc(-c2ccc(Br)cc2)cs1` [Compound 175, 1-[4-(4-Bromo-phenyl)-thiazol-2-yl]-3-(3-chloro-benzyl)-urea], in assay [1] (setting [5]), the MIC was 5.28 µg/mL (≈ 12.5 µM). For the same compound, the pIC50 in assay [2] (ATCC9604) was 5.86. The “In Vivo, double dose (% of mice rescued)” value in assay [3] (2 × 2 mg/kg s.c.) is listed as 0% @ 2 × 2 mg/kg; in assay [3] (2 × 20 mg/kg s.c.) it was 25% @ 2 × 20 mg/kg.
